# Measurements: US20220062331A1, “TREATING IRON DEFICIENCY IN SUBJECTS AT RISK OF CARDIOVASCULAR ADVERSE EVENTS AND IRON FOR THE MANAGEMENT OF ATRIAL FIBRILLATION” (PHARMACOSMOS HOLDING A/S, priority 2019, published 2022)
# What was measured:
# [1] = Combined CKD-04/IDA-03 studies: treatment-emergent cardiovascular and congestive heart failure adverse events; assay type: in vivo; conditions: for composite cardiovascular events (incidence, % of patients): 2008 patients on IIM, p=0.0176; for treatment-emergent congestive heart failure adverse events (% of patients) / worsening/exacerbation of heart failure (% of cases): all patients with CHF
# Procedure: (§1) Two Phase III randomized, open-label, comparative safety and efficacy studies were performed in relation to treatment with iron isomaltoside (“IIM”, tradename Monofer®, Monoferric®) and iron sucrose (“IS”, trade name Venofer®) in adult human subjects with iron deficiency anaemia and non-dialysis-dependent chronic kidney disease. These studies allowed comparing the incidence of treatment-emergent cardiovascular adverse events in particular in patients with cardiovascular risk factors.
# (§2) The studies were randomized, open-label, comparative studies. Subjects with iron deficiency anaemia (IDA) were randomized 1:1 to one treatment course of one of two treatments. Iron isomaltoside 1000 was administered as a single dose of 1000 mg of elemental iron. Iron sucrose was administered as 200 mg slow intravenous bolus injections according to its US label and repeated up to 5 times to reach a cumulative dose of 1000 mg.
# Said protocol defined cardiovascular adverse events were as follows: • (1) Congestive heart failure requiring hospitalization or medical intervention: • Congestive heart failure requiring hospitalization or medical intervention was defined as meeting the following criteria: • Requires hospitalization defined as an admission to an inpatient unit or a visit to an emergency department that results in at least a 12-hour stay (or a date change if the time of admission/discharge is not available); AND • Clinical manifestation of congestive heart failure including at least one of the following: new or worsening dyspnoea, orthopnoea, paroxysmal nocturnal dyspnoea, oedema, pulmonary basilar crackles, jugular venous distension, or radiological evidence of worsening heart failure; AND • Additional/increased therapy: • Intravenous treatment with diuretic, inotrope, or vasodilator therapy; OR • Mechanical or surgical intervention (mechanical circulatory support, heart transplantation, or ventricular pacing to improve cardiac function) or the use of ultrafiltration, hemofiltration, or dialysis that is specifically directed at treatment of heart failure. • (2) Arrhythmia: • Arrhythmia was defined as any symptomatic deviation from normal sinus rhythm experienced by the subject that results in an evaluation by a health care provider. The evaluation included a physical examination during an outpatient visit, an ECG, or a hospital admission. […]
# [2] = CKD-04 Phase III study: protocol defined cardiovascular adverse events; assay type: in vivo, human; conditions: for composite cardiovascular events (incidence, % of patients): CKD-04 study, IIM 1000 mg single dose (1019 patients) vs iron sucrose 5 x 200 mg (506 patients), within 8 weeks
# Procedure: as §1
# as §2, with “mg. […]” for “mg.”
# [3] = tested on: iFGF23 (intact FGF23); conditions: cited from earlier work
# [4] = Combined CKD-04/IDA-03 studies: change from baseline in hemoglobin; assay type: in vivo, human
# Procedure: The primary efficacy outcome measure was the ability to increase Hb (g/dL) within 8 weeks.
# The co-primary efficacy endpoint was analysed using a restricted maximum likelihood (REML)-based mixed model for repeated measures (MMRM) approach. All subjects in the intention-to-treat (ITT) analysis set with post baseline Hb data was to be included with their observed data. The model included the fixed, categorical effects of treatment (iron isomaltoside and iron sucrose), week, treatment-by-week interaction, strata, as well as the continuous, fixed covariates of baseline Hb value and baseline Hb-by-week interaction. An unstructured (co)variance structure was used to model the within-subject errors. […] The Kenward-Roger approximation was to be used to estimate the denominator degrees of freedom. The primary comparisons will be the contrasts between iron isomaltoside and iron sucrose at week 8 based on the least squares means for the treatment-by-week interaction effect. The estimated mean difference based on this model was reported with two-sided symmetric 95% CI, and if the lower bound of the 95% CI is >−0.5 g/dL, the efficacy objective has been met.
# The following efficacy laboratory parameters were analysed: • Hb: Hemoglobin was analyzed by the Coulter LH 750 System. Lytic reagents were used for the complete blood count parameters to prepare the blood so that the system could measure the amount of hemoglobin. The lytic reagent rapidly and simultaneously destroyed the erythrocytes and converted the substantial proportion of the hemoglobin to a stable pigment. The absorbance of the pigment was directly proportional to the hemoglobin concentration in the sample. […] A chemiluminescent substrate, Lumi-Phos* 530, was added to the reaction vessel and light generated by the reaction was measured with a luminometer. • TSAT (s-iron and transferrin will be collected to calculate the TSAT; TSAT=(iron μg/dL/transferrin mg/dL)×70.9). • S-iron: Serum iron (s-iron) was measured by a calorimetric assay using Roche automated clinical chemistry analyzer based on a immunoturbidimetric assay.
# [5] = iron-deficient CHF patients with LVEF ≤45%; single total dose infusion (Jaumdally et al., 2019); cited from earlier work
# [6] = Randomized double-blind placebo-controlled trial in chronic heart failure patients: P-wave dispersion on 12-lead ECG (post-hoc analysis); assay type: in vivo, human
# From the text: This study was a post-hoc analysis of a randomized, double-blind, placebo-controlled trial that was approved by the South-Central Berkshire ethics committee, the UK Medicines and Healthcare products Regulatory Agency, and the King's College Hospital independent research governance board. King's College London University and King's College Hospital NHS Foundation Trust were co-sponsors. The King's Health Partners clinical trial office monitored the trial and ensured compliance with the International Conference on Harmonization guidelines for Good Clinical Practice and the Declaration of Helsinki. Written informed consent was obtained from all patients. FIG. 1 represents a flow chart of the trial. A total of 25 chronic heart failure patients in normal sinus rhythm were recruited into this trial with 15 randomized to intravenous saline placebo and 10 randomized to intravenous iron isomaltoside.
# Patients with stable, symptomatic, chronic heart failure and a left ventricular ejection fraction <45% were recruited from dedicated heart failure clinics at King's College Hospital, London. Main exclusion criteria were a history of acquired iron overload, known haemochromatosis or first degree relatives with haemochromatosis; an allergic disorder (e.g., asthma, eczema, and anaphylactic reactions); prior hypersensitivity to IV iron drugs or their excipients; active infection, bleeding, malignancy, haemolytic anemia, rheumatoid arthritis, and myelodysplasia; and HIV/AIDS.
# After inclusion into the trial, patients had endpoints assessed which included a 12-lead surface electrocardiogram to measure P-wave dispersion (difference between maximum and minimum P-wave duration across all leads), heart rate (HR), PR interval, QRS duration, QT interval and corrected QT interval (QTc). FIG. 2 is an example of a surface electrocardiogram with P-wave durations measured. An echocardiogram was also done to measure LVEF, left ventricular end-diastolic volume (LVED), left ventricular end-systolic volume (LVES), left atrial (LA) volumes and right atrial (RA) volumes with and without indexing for body surface area. After baseline assessments, patients were then infused a total repletion dose of iron isomaltoside or an equivalent volume of normal saline placebo. Endpoints were then reassessed 2 weeks later. A Student's t-test or a Fisher's Exact test were statistically used to assess the baseline characteristics between the groups. An ANCOVA was used to statistically compare the week 2 endpoint results between the groups with adjustment for each variables baseline value.
# [7] = IDA-03 Phase III study: protocol defined cardiovascular adverse events; assay type: in vivo, human; conditions: IDA-03 study, 989 vs 494 patients, within 8 weeks
# Procedure: as §1
# as §2, with “mg. […]” for “mg.”
# [8] = single total dose infusion; 2 weeks post-infusion; cited from earlier work
# [9] = 20 elderly CHF patients, cited from earlier work
substance,measurement,setting,value
iron sucrose,"composite cardiovascular events (incidence, % of patients)",[1]; combined CKD-04/IDA-03,4.1%
same,treatment-emergent congestive heart failure adverse events (% of patients),[1]; combined CKD-04/IDA-03,6.5%
same,worsening/exacerbation of heart failure (% of cases),[1]; combined CKD-04/IDA-03,5.4%
same,incidence for congestive heart failure,[1]; patients with CV risk,3.5%
same,worsening of congestive heart failure,[1]; patients with CV risk,1.7%
same,incidence for congestive heart failure,[1]; patients with CV risk and CHF,4.9%
same,worsening of congestive heart failure,[1]; patients with CV risk and CHF,3.7%
same,"composite cardiovascular events (incidence, % of patients)",[2],6.9%
ferric carboxymaltose,effect on iFGF23,[3]; see WO 2013/134273 A1,significantly increases
ferric derisomaltose [iron isomaltoside 1000],incidence on composite CV endpoint (and most sub-items including death from any cause) compared to Venofer and FCM (CDER report),[1]; Ferwon studies vs Injectafer FDA CDER report,lower
same,decrease of composite cardiovascular events when treated with iron isomaltoside 1000 versus iron sucrose,[1]; combined CKD-04/IDA-03,60%
same,"composite cardiovascular events (incidence, % of patients)",[1]; combined CKD-04/IDA-03,2.5%
same,treatment-emergent congestive heart failure adverse events (% of patients),[1]; combined CKD-04/IDA-03,1.8%
same,worsening/exacerbation of heart failure (% of cases),[1]; combined CKD-04/IDA-03,1.8%
same,"rates of congestive heart failure, hypertension, atrial fibrillation, hypotension, and cardiac arrest compared to iron sucrose","[1]; in each study (CKD-04, IDA-03, combined)",lower
same,incidence for congestive heart failure,[1]; patients with CV risk,1.2%
same,worsening of congestive heart failure,[1]; patients with CV risk,1.2%
same,incidence for congestive heart failure,[1]; patients with CV risk and CHF,1.4%
same,worsening of congestive heart failure,[1]; patients with CV risk and CHF,1.4%
same,"probability of not experiencing an adjudicated composite adverse cardiovascular event, compared to iron sucrose","[2]; CKD-04, after 8 weeks, Kaplan-Meier",significantly higher
same,"composite cardiovascular events (incidence, % of patients)",[2],4.1%
same,increase in Hb from baseline compared to iron sucrose,"[4]; all patients, weeks 1 and 2, p<0.001",higher increase
same,change in Hb from baseline compared to iron sucrose (primary efficacy endpoint),"[4]; all patients, weeks 4 and 8",non-inferiority
same,increase in Hb from baseline,"[4]; patients with congestive heart failure in medical history, week 1 and 2",higher increase
same,P wave dispersion,[5],attenuate
same,"P-wave dispersion, changes in individual patients (FIG. 5)","[6]; ANCOVA P-value 0.007, unchanged in saline placebo group",shortened
same,reduction of P-wave dispersion,"[6]; at 2 weeks after total repletion dose, vs saline placebo, P=0.007",10 ms
same,"P-wave dispersion, adjusted difference between the groups (ANCOVA)","[6]; at 2 weeks, 95% confidence interval −17 & −3 msec, P=0.007",-10 ms
same,P-wave dispersion difference after adjusting for size of the atria (indexed LA and RA volumes),"[6]; at 2 weeks, 95% confidence interval −18 & −4 msec, P=0.005",-11 ms
same,"effect on the other endpoints (HR, PR, QRS, QT, QTc, LVEF, LV and atrial volumes)","[6]; at 2 weeks, ANCOVA",no significant effect
same,"composite cardiovascular events (incidence, % of patients)",[7],0.8%
same,"composite cardiovascular events (incidence, % of patients)",[7]; listed as iron,1.2%
same,risk for increasing iFGF23 and triggering iFGF23-mediated effects,"[3]; clinical trials, Wolf et al., 2019",low
same,iron stores,[8],repleted
same,skeletal muscle energetics,[8],augmented
same,QoL measures,[9],improved
same,tolerability,[9]; single fast intravenous infusion at relatively high doses without test dose,very well tolerated
